Reference: patent US12187723B2 (BRISTOL-MYERS SQUIBB COMPANY, priority 2019, dated 2025)
Counter-ions that a name gives are not always drawn.

What was measured:
human TLR9 = biological target: T1, human TLR9 (Homo sapiens, UniProt Q9NR96); assay: TLR9 inhibition reporter assay (HEK-Blue SEAP); assay type: cell-based; conditions: HEK-Blue cells overexpressing human TLR9, ODN2006 5 nM, 22 hour incubation
T1 construct: host or cells: HEK-Blue cells
T1 sequence (Q9NR96 26-1032): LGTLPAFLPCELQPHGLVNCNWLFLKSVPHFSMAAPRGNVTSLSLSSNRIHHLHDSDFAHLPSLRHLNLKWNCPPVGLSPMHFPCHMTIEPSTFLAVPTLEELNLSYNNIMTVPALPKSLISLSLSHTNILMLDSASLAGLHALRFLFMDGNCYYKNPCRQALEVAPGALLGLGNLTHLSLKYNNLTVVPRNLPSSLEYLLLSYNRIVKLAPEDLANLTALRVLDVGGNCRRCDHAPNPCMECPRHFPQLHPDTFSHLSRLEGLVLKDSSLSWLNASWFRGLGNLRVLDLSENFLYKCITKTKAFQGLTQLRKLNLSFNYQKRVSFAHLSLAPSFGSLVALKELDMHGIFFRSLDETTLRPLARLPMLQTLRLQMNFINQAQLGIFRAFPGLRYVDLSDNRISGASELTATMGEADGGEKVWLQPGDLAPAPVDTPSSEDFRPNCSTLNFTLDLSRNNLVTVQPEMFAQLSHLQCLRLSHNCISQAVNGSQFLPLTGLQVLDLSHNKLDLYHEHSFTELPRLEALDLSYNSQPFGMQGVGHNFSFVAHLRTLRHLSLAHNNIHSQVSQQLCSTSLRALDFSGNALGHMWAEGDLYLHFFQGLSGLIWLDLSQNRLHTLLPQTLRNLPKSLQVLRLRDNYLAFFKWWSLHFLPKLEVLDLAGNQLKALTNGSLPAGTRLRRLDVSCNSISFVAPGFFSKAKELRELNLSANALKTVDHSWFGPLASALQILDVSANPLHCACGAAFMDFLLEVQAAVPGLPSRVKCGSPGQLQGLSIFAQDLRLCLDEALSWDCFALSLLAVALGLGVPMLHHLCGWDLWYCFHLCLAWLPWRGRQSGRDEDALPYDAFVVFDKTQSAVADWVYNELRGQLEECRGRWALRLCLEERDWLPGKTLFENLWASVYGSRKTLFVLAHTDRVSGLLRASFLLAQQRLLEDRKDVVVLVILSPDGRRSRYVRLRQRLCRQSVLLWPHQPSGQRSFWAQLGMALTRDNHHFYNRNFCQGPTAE
Outline: (§1)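 Dose–response from 0.05 nM to 50 μM was run in HEK-Blue human TLR7, TLR8 and TLR9 reporter cells. After 30 min at room temperature with compound, ligand was added (TLR7 gardiquimod 7.5 μM; TLR8 R848 15.9 μM; TLR9 ODN2006 5 nM) and SEAP measured next day, at 22 h.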

human TLR8 = biological target: T2, human TLR8 (Homo sapiens, UniProt Q9NR97); assay: TLR8 inhibition reporter assay (HEK-Blue SEAP); assay type: cell-based; conditions: HEK-Blue cells overexpressing human TLR8, R848 15.9 μM, 22 hour incubation
T2 construct: host or cells: HEK-Blue cells
T2 sequence (Q9NR97 27-1041): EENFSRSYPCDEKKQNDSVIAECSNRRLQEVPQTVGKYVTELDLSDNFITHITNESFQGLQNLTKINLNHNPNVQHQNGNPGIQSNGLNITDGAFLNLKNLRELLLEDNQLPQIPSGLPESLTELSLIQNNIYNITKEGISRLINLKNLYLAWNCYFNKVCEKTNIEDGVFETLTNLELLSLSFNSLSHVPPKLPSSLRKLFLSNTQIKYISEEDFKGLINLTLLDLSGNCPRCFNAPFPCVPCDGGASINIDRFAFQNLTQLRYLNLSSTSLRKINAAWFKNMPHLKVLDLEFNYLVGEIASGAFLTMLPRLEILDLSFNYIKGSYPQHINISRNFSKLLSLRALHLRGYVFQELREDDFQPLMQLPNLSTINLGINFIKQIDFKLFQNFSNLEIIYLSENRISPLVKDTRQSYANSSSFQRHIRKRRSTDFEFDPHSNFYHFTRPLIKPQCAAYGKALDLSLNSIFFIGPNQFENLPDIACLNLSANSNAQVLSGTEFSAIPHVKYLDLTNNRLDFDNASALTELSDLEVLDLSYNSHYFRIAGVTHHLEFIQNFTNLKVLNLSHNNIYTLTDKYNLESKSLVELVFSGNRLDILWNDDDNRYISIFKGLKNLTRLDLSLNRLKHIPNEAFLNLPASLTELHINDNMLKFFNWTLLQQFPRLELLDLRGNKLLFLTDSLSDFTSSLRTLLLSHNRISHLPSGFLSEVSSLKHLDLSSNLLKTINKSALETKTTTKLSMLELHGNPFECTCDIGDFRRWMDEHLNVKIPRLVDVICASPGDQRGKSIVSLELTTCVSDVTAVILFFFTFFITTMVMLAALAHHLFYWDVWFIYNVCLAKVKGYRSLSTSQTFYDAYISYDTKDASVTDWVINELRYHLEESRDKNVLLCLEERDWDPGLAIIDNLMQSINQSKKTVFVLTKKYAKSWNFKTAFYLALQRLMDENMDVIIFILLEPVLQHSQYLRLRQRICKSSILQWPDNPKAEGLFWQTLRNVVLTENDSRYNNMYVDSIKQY
Outline: as §1

Compound	IC50 (human TLR9) [nM]	IC50 (human TLR8) [nM]
Cc1c(-c2cc3[nH]c(=O)n(C4CCC(N5CC6(COC6)C5)CC4)c3cc2C(C)C)cn2ncnc2c1C (single isomer, unassigned) [Example 298]	3790	3.76
COc1cc(-c2cc3[nH]c(=O)n(C4CCNCC4)c3cc2C)cn2ncnc12 [1 E, 5-(8-methoxy-[1,2,4]triazolo[1,5-a]pyridin-6-yl)-6-methyl-1-(piperidin-4-yl)-1H-benzo[d]imidazol-2(3H)-one, TFA]	2640	225
Cc1cc2c(cc1-c1cc(C)c3ncnn3c1)[nH]c(=O)n2C1CCNCC1 [1 EA, 6-methyl-5-(8-methyl-[1,2,4]triazolo[1,5-a]pyridin-6-yl)-1-(piperidin-4-yl)-1,3-dihydro-2H-benzo[d]imidazol-2-one]	5450	439
Cc1cc(-c2ccc3c(c2)[nH]c(=O)n3C2CCNCC2)cn2ncnc12 [1 EB, 5-(8-methyl-[1,2,4]triazolo[1,5-a]pyridin-6-yl)-1-(piperidin-4-yl)-1,3-dihydro-2H-benzo[d]imidazol-2-one]	347	1030
Cc1cc2c(cc1-c1cc(C)c3ncnn3c1)[nH]c(=O)n2C1CCCNC1 (stereo not drawn) [1 EC, 6-methyl-5-(8-methyl-[1,2,4]triazolo[1,5-a]pyridin-6-yl)-1-(piperidin-3-yl)-1,3-dihydro-2H-benzo[d]imidazol-2-one]	381	22.5
Cc1cc2c(cc1-c1cc(C)c3ncnn3c1)[nH]c(=O)n2[C@@H]1CCCNC1 [1 ED, (R)-6-methyl-5-(8-methyl-[1,2,4]triazolo[1,5-a]pyridin-6-yl)-1-(piperidin-3-yl)-1,3-dihydro-2H-benzo[d]imidazol-2-one]	524	38.1
Cc1cc2c(cc1-c1cc(C)c3ncnn3c1)[nH]c(=O)n2[C@H]1CC[C@@H](N)CC1 [1 EE]	2160	31.8
Cc1cc2c(cc1-c1cc(C)c3ncnn3c1)[nH]c(=O)n2[C@H]1CC[C@H](N)CC1 [1 EF, 1-((1r,4r)-4-aminocyclohexyl)-6-methyl-5-(8-methyl-[1,2,4]triazolo[1,5-a]pyridin-6-yl)-1,3-dihydro-2H-benzo[d]imidazol-2-one]	2310	33.2
COc1cc(-c2cc3[nH]c(=O)n([C@H]4CC[C@@H](N)CC4)c3cc2C)cn2ncnc12 [1 EG, 1-((1s,4s)-4-aminocyclohexyl)-5-(8-methoxy-[1,2,4]triazolo[1,5-a]pyridin-6-yl)-6-methyl-1,3-dihydro-2H-benzo[d]imidazol-2-one]	3650	32.6
COc1cc(-c2cc3[nH]c(=O)n([C@@H]4CCCNC4)c3cc2C)cn2ncnc12 [1 EH, (R)-5-(8-methoxy-[1,2,4]triazolo[1,5-a]pyridin-6-yl)-6-methyl-1-(piperidin-3-yl)-1,3-dihydro-2H-benzo[d]imidazol-2-one]	809	49.6
COc1cc(-c2ccc3c(c2)[nH]c(=O)n3C2CCNCC2)cn2ncnc12 [1 EI, 5-(8-methoxy-[1,2,4]triazolo[1,5-a]pyridin-6-yl)-1-(piperidin-4-yl)-1,3-dihydro-2H-benzo[d]imidazol-2-one]	1180	> 3130
Cc1cc(-c2cc(C)c3ncnn3c2)cc2[nH]c(=O)n(C3CCNCC3)c12 [106 F, 7-methyl-5-(8-methyl-[1,2,4]triazolo[1,5-a]pyridin-6-yl)-1-(piperidin-4-yl)-1,3-dihydro-2H-benzo[d]imidazol-2-one]	1020	433
COc1cc(-c2cc3[nH]c(=O)n([C@@H]4CCCNC4)c3cc2C(F)(F)F)cn2ncnc12 [110 F, (R)-5-(8-methoxy-[1,2,4]triazolo[1,5-a]pyridin-6-yl)-1-(piperidin-3-yl)-6-(trifluoromethyl)-1,3-dihydro-2H-benzo[d]imidazol-2-one]	2710	14.8
CCc1cc2c(cc1-c1cc(OC)c3ncnn3c1)[nH]c(=O)n2[C@@H]1CCCNC1 [119 FB, (R)-6-ethyl-5-(8-methoxy-[1,2,4]triazolo[1,5-a]pyridin-6-yl)-1-(piperidin-3-yl)-1,3-dihydro-2H-benzo[d]imidazol-2-one]	2500	6.99
Cc1c(-c2cc3[nH]c(=O)n([C@@H]4CCCNC4)c3cc2C(C)C)cn2ncnc2c1C [119 FC, (R)-5-(7,8-dimethyl-[1,2,4]triazolo[1,5-a]pyridin-6-yl)-6-isopropyl-1-(piperidin-3-yl)-1,3-dihydro-2H-benzo[d]imidazol-2-one]	11700	7.17
Cc1cc2c(cc1-c1cc(C)c3ncnn3c1)[nH]c(=O)n2[C@@H]1CCCN(C2COC2)C1 [Example 18, (R)-6-methyl-5-(8-methyl-[1,2,4]triazolo[1,5-a]pyridin-6-yl)-1-(1-(oxetan-3-yl)piperidin-3-yl)-1,3-dihydro-2H-benzo[d]imidazol-2-one]	> 50000	80.8
Cc1cc2c(cc1-c1cc(C)c3ncnn3c1)[nH]c(=O)n2[C@H]1CC[C@@H](N(C)C)CC1 [Example 19, 1-((1s,4s)-4-(dimethylamino)cyclohexyl)-6-methyl-5-(8-methyl-[1,2,4]triazolo[1,5-a]pyridin-6-yl)-1,3-dihydro-2H-benzo[d]imidazol-2-one]	16400	32
CCN(CC)[C@H]1CC[C@@H](n2c(=O)[nH]c3cc(-c4cc(C)c5ncnn5c4)c(C)cc32)CC1 [Example 20, 1-((1s,4s)-4-(diethylamino)cyclohexyl)-6-methyl-5-(8-methyl-[1,2,4]triazolo[1,5-a]pyridin-6-yl)-1,3-dihydro-2H-benzo[d]imidazol-2-one]	3350	14.4
CCN[C@H]1CC[C@@H](n2c(=O)[nH]c3cc(-c4cc(C)c5ncnn5c4)c(C)cc32)CC1 [Example 21, 1-((1s,4s)-4-(ethylamino)cyclohexyl)-6-methyl-5-(8-methyl-[1,2,4]triazolo[1,5-a]pyridin-6-yl)-1,3-dihydro-2H-benzo[d]imidazol-2-one]	7060	13.3
Cc1cc2c(cc1-c1cc(C)c3ncnn3c1)[nH]c(=O)n2[C@H]1CC[C@@H](NC(C)C)CC1 [Example 22, 1-((1s,4s)-4-(isopropylamino)cyclohexyl)-6-methyl-5-(8-methyl-[1,2,4]triazolo[1,5-a]pyridin-6-yl)-1,3-dihydro-2H-benzo[d]imidazol-2-one]	4630	4.08
Cc1cc2c(cc1-c1cc(C)c3ncnn3c1)[nH]c(=O)n2[C@H]1CC[C@H](N(C)C)CC1 [Example 23, 1-((1r,4r)-4-(dimethylamino)cyclohexyl)-6-methyl-5-(8-methyl-[1,2,4]triazolo[1,5-a]pyridin-6-yl)-1,3-dihydro-2H-benzo[d]imidazol-2-one]	5660	30.9
